The source of these data is PubChem BioAssay AID1259411 (Chemical Carcinogenesis Research Information System (CCRIS), 2018).

The subject of the data set is rodent carcinogenicity bioassays, tumor incidence. As to the kind of experiment: CCRIS carcinogenicity studies. In outline: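 Archive of carcinogenicity, mutagenicity, tumor promotion and tumor inhibition results drawn from journals, NCI reports and other sources, expert-reviewed; covers 1985-2011 and is no longer updated.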

Each structure is given as a SMILES string. Calls of active or inactive are those of the source. How the calls were made is not given here.

For `O.O=S(=O)([O-])[O-].[Mn+2]`, the carcinogen call by setting is: (Species: MOUSE, Strain/Sex: B6C3F1/FEMALE, Route: ORAL, Dose: 0, 1500, 5000, 15000 PPM IN DIET (0; 60; 200; 615 MG/KG/D) FOR 105 WK (STUDY DURATION: 105 WK), Dose: 0, 1500, 5000, 15000 PPM IN DIET (0; 60; 200; 615 MG/KG/D) FOR 105 WK (STUDY DURATION: 105 WK), Tumor Site: Type of Lesion: THYROID GLAND (FOLLICULAR CELL): ADENOMA) “equivocal”; (Species: MOUSE, Strain/Sex: B6C3F1/MALE, Route: ORAL, Dose: 0, 1500, 5000, 15000 PPM IN DIET (0; 60; 200; 615 MG/KG/D) FOR 105 WK (STUDY DURATION: 105 WK), Dose: 0, 1500, 5000, 15000 PPM IN DIET (0; 60; 200; 615 MG/KG/D) FOR 105 WK (STUDY DURATION: 105 WK), Tumor Site: Type of Lesion: THYROID GLAND (FOLLICULAR CELL): ADENOMA) “equivocal”; (Species: RAT, Strain/Sex: F344/FEMALE, Route: ORAL, Dose: 0, 1500, 5000, 15000 PPM IN DIET (0; 70; 230; 715 MG/KG/D) FOR 2 YR (STUDY DURATION: 2 YR), Dose: 0, 1500, 5000, 15000 PPM IN DIET (0; 70; 230; 715 MG/KG/D) FOR 2 YR (STUDY DURATION: 2 YR)) “inactive; negative”; (Species: RAT, Strain/Sex: F344/MALE, Route: ORAL, Dose: 0, 1500, 5000, 15000 PPM IN DIET (0; 60; 200; 615 MG/KG/D) FOR 2 YR (STUDY DURATION: 2 YR), Dose: 0, 1500, 5000, 15000 PPM IN DIET (0; 60; 200; 615 MG/KG/D) FOR 2 YR (STUDY DURATION: 2 YR)) “inactive; negative”.

As to `NNc1nc(-c2ccc([N+](=O)[O-])o2)cs1`, the carcinogen call (Species: RAT, Strain/Sex: SPRAGUE-DAWLEY/FEMALE, Route: ORAL, Dose: 0, 0.089% OF DIET FOR 46 WK FOLLOWED BY CONTROL DIET FOR 20 WK FOR A TOTAL DOSE OF 0, 4.2 G (STUDY DURATION: 66 WK), Dose: 0, 0.089% OF DIET FOR 46 WK FOLLOWED BY CONTROL DIET FOR 20 WK FOR A TOTAL DOSE OF 0, 4.2 G (STUDY DURATION: 66 WK), Tumor Site: Type of Lesion: MAMMARY GLAND: ADENOCARCINOMA, MAMMARY GLAND: ADENOFIBROMA OR FIBROADENOMA) is “active; positive”.

In the case of `COC(=O)COc1ccc(Cl)cc1`, the carcinogen call (Species: NEWT, Route: IMMERSION, Dose: 0, 100, 200, 400 PPM 4 D/WK FOR 12 MO (STUDY DURATION: 24 MO), Dose: 0, 100, 200, 400 PPM 4 D/WK FOR 12 MO (STUDY DURATION: 24 MO)) is “inactive; negative”.

Turning to `c1ccc(NNc2ccccc2)cc1`, the carcinogen call by setting is: (Species: MOUSE, Strain/Sex: B6C3F1/FEMALE, Route: ORAL, Dose: 0, 0.004, 0.04% TWA, IN DIET FOR 78 WK (STUDY DURATION: 95-96 WK), Dose: 0, 0.004, 0.04% TWA, IN DIET FOR 78 WK (STUDY DURATION: 95-96 WK), Tumor Site: Type of Lesion: LIVER: HEPATOCELLULAR ADENOMA OR CARCINOMA) “active; positive”; (Species: MOUSE, Strain/Sex: B6C3F1/MALE, Route: ORAL, Dose: 0, 0.008, 0.04% TWA, IN DIET FOR 78 WK (STUDY DURATION: 85 WK), Dose: 0, 0.008, 0.04% TWA, IN DIET FOR 78 WK (STUDY DURATION: 85 WK)) “inactive; negative”; (Species: RAT, Strain/Sex: F344/FEMALE, Route: ORAL, Dose: 0, 0.004, 0.01% TWA, IN DIET FOR 78 WK (STUDY DURATION: 107-108 WK), Dose: 0, 0.004, 0.01% TWA, IN DIET FOR 78 WK (STUDY DURATION: 107-108 WK), Tumor Site: Type of Lesion: LIVER: NEOPLASTIC NODULE) “active; positive”; (Species: RAT, Strain/Sex: F344/MALE, Route: ORAL, Dose: 0, 0.008, 0.03% TWA, IN DIET FOR 78 WK (STUDY DURATION: 106-107 WK), Dose: 0, 0.008, 0.03% TWA, IN DIET FOR 78 WK (STUDY DURATION: 106-107 WK), Tumor Site: Type of Lesion: LIVER: NEOPLASTIC NODULE OR HEPATOCELLULAR CARCINOMA, ADRENAL GLAND: PHEOCHROMOCYTOMA OR MALIGNANT PHEOCHROMOCYTOMA, EAR, Tumor Site: Type of Lesion: LIVER: NEOPLASTIC NODULE OR HEPATOCELLULAR CARCINOMA, ADRENAL GLAND: PHEOCHROMOCYTOMA OR MALIGNANT PHEOCHROMOCYTOMA, EAR) “active; positive”.

As to `OCc1ccco1`, the carcinogen call was “inactive; negative” (Species: MOUSE, Strain/Sex: B6C3F1/FEMALE, Route: INHALATION, Dose: 0, 2, 8, 32 PPM 6 HR/D 5 D/WK FOR 105 WK (STUDY DURATION: 105 WK), Dose: 0, 2, 8, 32 PPM 6 HR/D 5 D/WK FOR 105 WK (STUDY DURATION: 105 WK)); “active; positive” (Species: MOUSE, Strain/Sex: B6C3F1/MALE, Route: INHALATION, Dose: 0, 2, 8, 32 PPM 6 HR/D 5 D/WK FOR 105 WK (STUDY DURATION: 105 WK), Dose: 0, 2, 8, 32 PPM 6 HR/D 5 D/WK FOR 105 WK (STUDY DURATION: 105 WK), Tumor Site: Type of Lesion: KIDNEY: RENAL TUBULE ADENOMA, CARCINOMA); “equivocal” (Species: RAT, Strain/Sex: F344/FEMALE, Route: INHALATION, Dose: 0, 2, 8, 32 PPM 6 HR/D 5 D/WK FOR 105 WK (STUDY DURATION: 105 WK), Dose: 0, 2, 8, 32 PPM 6 HR/D 5 D/WK FOR 105 WK (STUDY DURATION: 105 WK), Tumor Site: Type of Lesion: NOSE: LATERAL WALL, ADENOMA, RESPIRATORY EPITHELIUM ADENOMA, KIDNEY (RENAL TUBULE): ADENOMA, CARCINOMA, ADENOMA OR CARCI); “active; positive” (Species: RAT, Strain/Sex: F344/MALE, Route: INHALATION, Dose: 0, 2, 8, 32 PPM 6 HR/D 5 D/WK FOR 105 WK (STUDY DURATION: 105 WK), Dose: 0, 2, 8, 32 PPM 6 HR/D 5 D/WK FOR 105 WK (STUDY DURATION: 105 WK), Tumor Site: Type of Lesion: NOSE: ADENOMA, CARCINOMA, OR SQUAMOUS CELL CARCINOMA).

In the case of `CC1(C)[C@@H](O[C@H]2O[C@H](C(=O)O)[C@@H](O)[C@H](O)[C@H]2O[C@@H]2O[C@H](C(=O)O)[C@@H](O)[C@H](O)[C@H]2O)CC[C@]2(C)[C@H]3C(=O)C=C4[C@@H]5C[C@@](C)(C(=O)O)CC[C@]5(C)CC[C@@]4(C)[C@]3(C)CC[C@@H]12`, the carcinogen call was “inactive; negative” (Species: MOUSE, Strain/Sex: B6C3F1/FEMALE, Route: ORAL, Dose: 0, 0.08, 0.15, 0.3% IN DRINKING WATER FOR 96 WK (STUDY DURATION: 110 WK), Dose: 0, 0.08, 0.15, 0.3% IN DRINKING WATER FOR 96 WK (STUDY DURATION: 110 WK)) and “inactive; negative” (Species: MOUSE, Strain/Sex: B6C3F1/MALE, Route: ORAL, Dose: 0, 0.04, 0.08, 0.15% IN DRINKING WATER FOR 96 WK (STUDY DURATION: 110 WK), Dose: 0, 0.04, 0.08, 0.15% IN DRINKING WATER FOR 96 WK (STUDY DURATION: 110 WK)).

For the compound `C=CC(=O)OC`, the carcinogen call is “inactive; negative” (Species: RAT, Strain/Sex: SPRAGUE-DAWLEY/FEMALE, Route: INHALATION, Dose: 0, 15, 45, 135 PPM 6 HR/D 5 D/WK FOR 24 MO (STUDY DURATION: 130 WK), Dose: 0, 15, 45, 135 PPM 6 HR/D 5 D/WK FOR 24 MO (STUDY DURATION: 130 WK)) and “inactive; negative” (Species: RAT, Strain/Sex: SPRAGUE-DAWLEY/MALE, Route: INHALATION, Dose: 0, 15, 45, 135 PPM 6 HR/D 5 D/WK FOR 24 MO (STUDY DURATION: 130 WK), Dose: 0, 15, 45, 135 PPM 6 HR/D 5 D/WK FOR 24 MO (STUDY DURATION: 130 WK)).

Regarding `ClCC1CO1` (configuration not stated), the carcinogen call by setting is: (Species: MOUSE, Route: DERMAL, Tumor Site: Type of Lesion: INTEGUMENTARY SYSTEM (SKIN)) “active; positive”; (Species: MOUSE, Route: SUBCUTANEOUS, Tumor Site: Type of Lesion: INJECTION SITE) “active; positive”; (Species: RAT, Strain/Sex: WISTAR/FEMALE, Route: GAVAGE, Dose: 0, 2, 10 MG/KG IN WATER 5 D/WK FOR 104 WK (STUDY DURATION: 24 MO), Dose: 0, 2, 10 MG/KG IN WATER 5 D/WK FOR 104 WK (STUDY DURATION: 24 MO), Tumor Site: Type of Lesion: FORESTOMACH: SQUAMOUS CELL CARCINOMA) “active; positive”; (Species: RAT, Strain/Sex: WISTAR/MALE, Route: GAVAGE, Dose: 0, 2, 10 MG/KG IN WATER 5 D/WK FOR 104 WK (STUDY DURATION: 24 MO), Dose: 0, 2, 10 MG/KG IN WATER 5 D/WK FOR 104 WK (STUDY DURATION: 24 MO), Tumor Site: Type of Lesion: FORESTOMACH: SQUAMOUS CELL CARCINOMA) “active; positive”.
